Like-named read-outs stand apart in the source and are kept apart here. Marks after values point to notes of the source that are not given here.
Assay: Example 5: 4-CNAB plasma pharmacokinetics, single oral doses, healthy male volunteers
Assay type: in vivo, human
Conditions: for MRT inf: read-out: 4-CNAB MRT(0-inf); for Vd/F: read-out: 4-CNAB Vd/F
Method: A single center, double-blind, randomized placebo-controlled study undertaken in healthy human subjects in order to assess the safety and tolerability of escalating single oral doses of 4-CNAB capsules and insulin/4-CNAB capsules.
Within each treatment period in each group, eight subjects were planned to receive active treatment and two subjects to receive placebo. In Group 1, there were four escalating single doses of 4-CNAB (400, 800, 1400 and 2000 mg) and each subject received either all four of these escalating doses or three escalating single doses and one dose of placebo. […] In Group 3 there were three escalating oral doses of Insulin/4-CNAB (100 Units/300 mg, 100 Units/450 mg and 150 Units/100 mg) and one SC dose of 150 Units of insulin. Each subject received either all four of these treatments or three of these treatments and one placebo treatment. For all groups, there was a washout period of at least 72 hours between treatment periods.
The concentration of 4-CNAB in plasma was determined using a combination of liquid chromatography and Mass spectrometry assay known as LC-MS/MS. The method involves protein precipitation followed by separation on liquid chromatography using a Hypersil BDS column and a mobile phase consisting of methanol and acetate buffer. The eluting peaks were quantified by MS/MS. The equipment used for the determination of 4-CNAB in plasma comprises of an Agilent 1100 modular HPLC system with a Micromass Quattro Micro MS/MS detector. HPLC and AR grade chemicals and reagents were used throughout the study.
On the basis of plasma concentrations of 4-CNAB and insulin, PK analysis was performed using non-compartmental PK methods as implemented in WinNonlin™ Professional version 3.2. The profiles for insulin and C-peptide corrected insulin were evaluated up to 6 hours as food was given 6 hours following insulin treatment. The following parameters were derived for 4-CNAB: Cmax, tmax, AUC(0-t), AUC(0-inf), AUC% Extrap, Kel, t1/2, CL/F, Vd/F, MRT(0-t), MRT(0-inf) and Frel. The following parameters were derived for insulin and C-peptide corrected insulin: Cmax, tmax, AUC(0-2), AUC(0-6), AUC(0-t) and concentrations (C^b) and corresponding time (t^b) immediately prior to intervention for hypoglycemia.

[1] = male, human, plasma, oral, 400 mg, Group/Treatment 1/1, 4-CNAB dose 400, alone, unaudited data
[2] = male, human, plasma, oral, 800 mg, Group/Treatment 1/2, 4-CNAB dose 800, alone, unaudited data
[3] = male, human, plasma, oral, 1400 mg, Group/Treatment 1/3, 4-CNAB dose 1400, alone, unaudited data
[4] = male, human, plasma, oral, 2000 mg, Group/Treatment 1/4, 4-CNAB dose 2000, alone, unaudited data
[5] = male, human, plasma, oral, Group/Treatment 2/2, 4-CNAB dose 200, with insulin, unaudited data
[6] = male, human, plasma, oral, Group/Treatment 2/3, 4-CNAB dose 600, with insulin, unaudited data
[7] = male, human, plasma, oral, Group/Treatment 3/1, 4-CNAB dose 300, with insulin, unaudited data
[8] = male, human, plasma, oral, Group/Treatment 3/2, 4-CNAB dose 450, with insulin, unaudited data
[9] = male, human, plasma, oral, Group/Treatment 3/3, 4-CNAB dose 100, with insulin, unaudited data
[10] = male, human, plasma, po, 400 mg, 4-CNAB alone 400 mg oral
[11] = male, human, plasma, po, 800 mg, 4-CNAB alone 800 mg oral
[12] = male, human, plasma, po, 1400 mg, 4-CNAB alone 1400 mg oral

With `O=C(O)CCCNC(=O)c1ccc(Cl)cc1O` [4-CNAB, 4-[(4-chloro, 2-hydroxybenzoyl)amino]butanoic acid] the “4-CNAB Cl/F” value (4-CNAB alone 400 mg oral) was 294 ± 122 mL/min, the 4-CNAB Kel (4-CNAB alone 400 mg oral) was 0.11 ± 0.78 h⁻¹ and the “4-CNAB Cl/F” value (4-CNAB alone 800 mg oral) was 290 ± 88^b mL/min. For the same molecule, the 4-CNAB Kel (4-CNAB alone 800 mg oral) was 0.12 ± 0.04 h⁻¹, the “4-CNAB Cl/F” value (4-CNAB alone 1400 mg oral) was 160 ± 38 mL/min and the 4-CNAB Kel (4-CNAB alone 1400 mg oral) was 0.18 ± 0.14 h⁻¹. For the same molecule, the “4-CNAB Cl/F” value (4-CNAB alone 2000 mg oral) was 178 ± 32^a mL/min, the 4-CNAB Kel (4-CNAB alone 2000 mg oral) was 0.06 ± 0.03 h⁻¹ and the “4-CNAB median time of maximum concentration” value (4-CNAB alone and combined Insulin/4-CNAB treatment) was “around 0.6 hours”. It also gave an AUC [1] of 22400 ng·h/mL, a Cmax [1] of 22300 ng/mL and a Tmax (male, human, plasma, oral, 400 mg, Group/Treatment 1/1, 4-CNAB dose 400, alone, unaudited data, read-out: 4-CNAB tmax (range)) of 30 min. It also gave an AUC [2] of 42700 ng·h/mL, a Cmax [2] of 32700 ng/mL and a Tmax (male, human, plasma, oral, 800 mg, Group/Treatment 1/2, 4-CNAB dose 800, alone, unaudited data, read-out: 4-CNAB tmax (range)) of 30 min. For the same molecule, the AUC [3] was 144000 ng·h/mL, the Cmax [3] was 97500 ng/mL and the Tmax (male, human, plasma, oral, 1400 mg, Group/Treatment 1/3, 4-CNAB dose 1400, alone, unaudited data, read-out: 4-CNAB tmax (range)) was 30 min. It also gave an AUC [4] of 213000 ng·h/mL, a Cmax [4] of 122000 ng/mL and a Tmax (male, human, plasma, oral, 2000 mg, Group/Treatment 1/4, 4-CNAB dose 2000, alone, unaudited data, read-out: 4-CNAB tmax (range)) of 45 min. The half-life (male, human, plasma, oral, 4-CNAB alone, read-out: 4-CNAB mean elimination half-life, range across doses) was 354 to 918 min, the AUC [5] was 10000 ng·h/mL and the Cmax [5] was 9160 ng/mL. For the same molecule, the Tmax (male, human, plasma, oral, Group/Treatment 2/2, 4-CNAB dose 200, with insulin, unaudited data, read-out: 4-CNAB tmax (range)) was 30 min, the AUC [6] was 36700 ng·h/mL and the Cmax [6] was 33200 ng/mL. The Tmax (male, human, plasma, oral, Group/Treatment 2/3, 4-CNAB dose 600, with insulin, unaudited data, read-out: 4-CNAB tmax (range)) was 30 min, the AUC [7] was 8740 ng·h/mL and the Cmax [7] was 8660 ng/mL. The Tmax (male, human, plasma, oral, Group/Treatment 3/1, 4-CNAB dose 300, with insulin, unaudited data, read-out: 4-CNAB tmax (range)) was 30 min, the AUC [8] was 25900 ng·h/mL and the Cmax [8] was 20100 ng/mL. The Tmax (male, human, plasma, oral, Group/Treatment 3/2, 4-CNAB dose 450, with insulin, unaudited data, read-out: 4-CNAB tmax (range)) was 30 min, the AUC [9] was 4710 ng·h/mL and the Cmax [9] was 5170 ng/mL. For the same molecule, the Tmax (male, human, plasma, oral, Group/Treatment 3/3, 4-CNAB dose 100, with insulin, unaudited data, read-out: 4-CNAB tmax (range)) was 15 min, the MRT (male, human, plasma, oral, across treatments, read-out: 4-CNAB MRT, range) was 84 to 108 min and the half-life (male, human, plasma, oral, combination capsules with insulin, across dose groups, read-out: 4-CNAB mean elimination half-life) was 192 to 318 min. For the same molecule, the AUC(0-inf) [10] was 26700 ± 12200 ng·h/mL, the AUC(0-t) [10] was 22200 ± 6760 ng·h/mL and the Cmax [10] was 22300 ± 11500 ng/mL. It also gave an MRT inf [10] of 438 ± 693 min, a Vd/F [10] of 220 ± 130 L and a half-life (male, human, plasma, po, 400 mg, 4-CNAB alone 400 mg oral, read-out: 4-CNAB t1/2 (converted)) of 720 ± 804 min. For the same molecule, the Tmax (male, human, plasma, po, 400 mg, 4-CNAB alone 400 mg oral, read-out: 4-CNAB tmax, median (range)) was 30 min, the AUC(0-inf) [11] was 49400 ± 15100 ng·h/mL and the AUC(0-t) [11] was 44300 ± 14500 ng·h/mL. It also gave a Cmax [11] of 38000 ± 15800 ng/mL, an MRT inf [11] of 156 ± 31.8 min and a Vd/F [11] of 156 ± 82 L. For the same molecule, the half-life (male, human, plasma, po, 800 mg, 4-CNAB alone 800 mg oral, read-out: 4-CNAB t1/2 (converted)) was 354 ± 93 min, the Tmax (male, human, plasma, po, 800 mg, 4-CNAB alone 800 mg oral, read-out: 4-CNAB tmax, median (range)) was 30 min and the AUC(0-inf) [12] was 154000 ± 38100 ng·h/mL. For the same molecule, the AUC(0-t) [12] was 144000 ± 33800 ng·h/mL, the Cmax [12] was 103000 ± 14600 ng/mL and the MRT inf [12] was 184 ± 103 min. The Vd/F [12] was 81 ± 50 L, the half-life (male, human, plasma, po, 1400 mg, 4-CNAB alone 1400 mg oral, read-out: 4-CNAB t1/2 (converted)) was 378 ± 246 min and the Tmax (male, human, plasma, po, 1400 mg, 4-CNAB alone 1400 mg oral, read-out: 4-CNAB tmax, median (range)) was 45 min.
